17 compounds from PMC7942396, “Drug Repurposing Screen for Compounds Inhibiting the Cytopathic Effect of SARS-CoV-2” (Frontiers in Pharmacology, 2021) can be followed below.

Like-named read-outs stand apart in the source and are kept apart here. Where a SMILES comes first, the peptide text is derived from it. The star is where a group is joined. Cbz = O=C(OCc1ccccc1)*; CH2Cl = ClC*

One series is described as follows: in vitro. Particulars: African green monkey.
Series [1] concerns SARS-CoV-2 (USA_WA1/2020). The series is described as follows: microbe, parasite or virus in culture. Particulars: for Emax: read-out: CPE % Efficacy; for EC50: read-out: CPE EC50. In kind it is cell-based.
For a further series, the system named is Vero E6 cells. The note with it: Vero E6 cells without virus; for CC50: read-out: Cytotox CC50.
[2] abbreviates: Severe acute respiratory syndrome coronavirus 2, Vero C1008, SARS-CoV-2 CPE assay, Vero E6 cells.
Where [3] appears, read: Severe acute respiratory syndrome coronavirus 2, Vero C1008, SARS-CoV-2 CPE assay, Vero E6 cells, confirmed anti-SARS-CoV-2 compounds.
The mark [4] stands for this setting: Severe acute respiratory syndrome coronavirus 2, Vero C1008, SARS-CoV-2 CPE assay, Vero E6 cells, efficacy.
Setting [5] is: SARS-CoV-2 CPE assay, Vero E6 cells.
[6] abbreviates: […], DMSO 0%, no-virus control 100%, hit confirmation.
Setting [7] is: SARS-CoV-2 CPE assay, Vero E6 cells, confirmed anti-SARS-CoV-2 compounds.
Where [8] appears, read: SARS-CoV-2 CPE assay, Vero E6 cells, efficacy.

Consider `COc1c(-c2ccc3cc(NS(C)(=O)=O)ccc3c2)cc(-n2ccc(=O)[nH]c2=O)cc1C(C)(C)C` [ABT-333], for which, in “in vitro”, the cytotoxicity at 72 h worked out at 42.5%. In series [1] (setting [2]), the Emax was 48.7% and the EC50 (usually the concentration needed to bring the measured effect to its halfway point) is 12.6 µM.

In turn, `CC(/C=C/[C@@H]1C[C@]1(C)c1ccc2c(c1)C(C)(C)CCC2(C)C)=C\C(=O)O` [AGN-194204] came in with a cytotoxicity at 72 h in “in vitro” of 36.8%. Moreover, the EC50 in series [1] (setting [3]) was 11.2 µM. For the same compound, the Emax in series [1] (setting [4]) was determined as 57%.

In the series “in vitro”, `Cn1c(NC[C@@H](N)Cc2ccccc2)nc(-c2ccncc2)c(-c2ccc3ccccc3c2)c1=O` [AMG-548] registered a CC50 at 72 h of 17.8 µM and a cytotoxicity at 72 h of 35.4%. Further, the EC50 in series [1] (setting [3]) came to 8.91 µM. In addition, in series [1] (setting [4]), the Emax was found to be 75%.

Turning to `CC#C[C@@H](CC(=O)O)c1ccc(OCc2cccc(-c3ccc(C(F)(F)F)cc3)c2)cc1` [AMG-837], in “in vitro”, the CC50 stood at 15.8 µM and the cytotoxicity was determined as 20.2%. The EC50 in series [1] (setting [3]) amounted to 11.2 µM. In addition, the Emax in series [1] (setting [4]) is 106%.

`CC[C@H](CC#N)OC(=O)N[C@@H](C)c1cccc(NC(=O)Nc2ccc(-c3cnco3)c(OC)c2)c1` [AVN944]: in “in vitro”, the CC50 at 72 h was 3.98 µM and the cytotoxicity at 72 h amounted to 50.3%. Moreover, the EC50 in series [1] (setting [3]) was 11.2 µM. The Emax in series [1] (setting [4]) was found to be 95.3%.

On to `Clc1ccc2c(c1)CCc1cccnc1C2=C1CCNCC1` [Desloratadine], for which the cytotoxicity in the series “in vitro” worked out at 14.2%.

In the case of `COc1cc(N2CCN(C)CC2)ccc1Nc1ncc2c(n1)N(C)c1ccccc1C(=O)N2` [XMD8-87], the “% Cytotox” value in the series with Vero E6 cells (cytotoxicity counter-assay) was 32.0%. Moreover, in series [1] (setting [5]), the “CPE % Efficacy” value is 88.0% and the concentration giving a half-maximal response (EC50) was 11.2 µM.

On to `Cc1nc2ccc(Oc3ccc(F)cc3)cc2c(=O)n1C[C@H]1CCCN(C(C)C)C1` [YIL 781], for which the “% Cytotox” value with Vero E6 cells (cytotoxicity counter-assay) is listed as 0.0%. Also, in series [1] (setting [5]), the “CPE % Efficacy” value is given as 53.5% and the EC50 was found to be 11.2 µM.

As to `CC(NC(=O)[C@H](Cc1ccccc1)NC(=O)OCc1ccccc1)C(=O)CF` (stereo partly drawn) [Z-FA-FMK, reference compound], the “% Cytotox” value with Vero E6 cells (72 h) is listed as less than 30%. The CPE % Efficacy in series [1] (setting [6]) came out at 104.8%. In series [1], the EC50 amounted to 0.13 µM.

`CC(C)C[C@H](NC(=O)CNC(=O)OCc1ccccc1)C(=O)N[C@@H](Cc1ccccc1)C(=O)CCl` [Z-Gly-Leu-Phe-chloromethyl ketone, reference compound] (Cbz-Gly-Leu-Phe-CH2Cl): in the series on Vero E6 cells (72 h), the “% Cytotox” value was less than 30%. In series [1] (setting [6]), this compound registered a CPE % Efficacy of 87.2%. In series [1], the EC50 stood at 1.3 µM.

For the compound `COc1cc2c(Nc3ccc(NC(=O)c4ccccc4)cc3)ncnc2cc1OCCCN1CCOCC1` [ZM-447439], in the series on Vero E6 cells (cytotoxicity counter-assay), the “% Cytotox” value is 38.3% and the CC50 is 12.6 µM. Further, in series [1] (setting [5]), the “CPE % Efficacy” value stood at 49.6% and the EC50 was 14.1 µM.

In the case of `CC1(CN2CCC(n3c(=O)[nH]c4ccccc43)CC2)OCc2ccccc2-n2cccc21.O=C(O)/C=C\C(=O)O` (stereo not drawn) [Zaldaride maleate], the “% Cytotox” value in the series with Vero E6 cells (cytotoxicity counter-assay) is given as 0.0%. Moreover, the EC50 in series [1] (setting [7]) came out at 11.2 µM. In addition, the “CPE % Efficacy” value in series [1] (setting [8]) was 81.7%.

For the compound `O=C(CCC1CCN(Cc2ccccc2)CC1)c1ccc2c(c1)NCCCC2.O=C(O)/C=C/C(=O)O` [Zanapezil fumerate], the “% Cytotox” value with Vero E6 cells (cytotoxicity counter-assay) came to 0.0%. Also, the half-maximal effective concentration (EC50) in series [1] (setting [7]) came out at 11.2 µM. Moreover, in series [1] (setting [8]), the “CPE % Efficacy” value is on record as 63.3%.

Consider `O[C@@H]1[C@@H](O)[C@@H](O)CO[C@H]1O` [alpha-L-Arabinopyranose, reference compound], for which the “% Cytotox” value in the series with Vero E6 cells (72 h) is less than 30%. The same compound had a CPE % Efficacy in series [1] (setting [6]) of 104.0%. Moreover, the EC50 in series [1] is 2.4 µM.

Consider (-)-Indolactam V, for which, in the series with Vero E6 cells (cytotoxicity counter-assay), the “% Cytotox” value worked out at 20.4% and the CC50 was 1.24 µM. The half-maximal effective concentration (EC50) in series [1] (setting [7]) is 1.56 µM. Further, the “CPE % Efficacy” value in series [1] (setting [8]) came to 74.4%.

GSK 9027: in the series on Vero E6 cells (cytotoxicity counter-assay), the “% Cytotox” value turned out to be 24.3%. In series [1] (setting [5]), the “CPE % Efficacy” value worked out at 104.1% and the EC50 was determined as 12.6 µM.

Turning to HBX 19818, the “% Cytotox” value in the series on Vero E6 cells (cytotoxicity counter-assay) is given as 39.1%. In addition, in series [1] (setting [7]), the EC50 was 7.94 µM. The “CPE % Efficacy” value in series [1] (setting [8]) is given as 80.9%.
